From patent US20240350494A1, “THERAPEUTIC MODULATION OF INTEGRINS” (Pliant Therapeutics, Inc., priority 2021, published 2024) come the findings set out here.

Data set [1] concerns Human bronchial epithelial cells. Description: LAP adhesion assay, normal human bronchial epithelial cells (express αVβ6). It counts as cell-based. The following applies: cell index (electrical impedance), xCELLigence; FIG. 1A. How it is done: Two latency associated peptide (LAP) adhesion binding assays were devised using primary human lung cells, including normal (healthy) human bronchial epithelial cells and human lung fibroblasts (healthy and IPF).
Human bronchial epithelial cells are known to express αVβ6 integrin in culture. Human bronchial epithelial cells were prepared for the assay by dissociation with trypsin/EDTA and were then seeded at 20,000 cells per well on 96 well plates (ACEA Bioscience E-plate View, Acea Biosciences; San Diego, CA) previously coated with 5 μg/ml of recombinant human LAP (R&D Systems; Minneapolis, MN) and blocked with 4% bovine serum albumin. Cell index (electrical impedance) was measured to assess cell attachment/spreading every 3 minutes for 24 hours at 37° C./5% CO2 using the xCELLigence RTCA MP Instrument (Acea Biosciences; San Diego, CA).

Data set [2] has as its system PRO-C3 and PRO-C6. Description: Phase 2a trial in IPF, serum biomarkers of collagen synthesis. It counts as in vivo, human. To be noted: IPF participants. The text has this:
FIG. 27 (PRO—C3 Type III collagen synthesis neoepitope) and FIG. 28 (PRO—C6 TypeVI collagen synthesis neoepitope) compare serum biomarkers of collagen synthesis in Compound 5 groups versus placebo groups. Compound 5 decreased serum biomarkers of collagen synthesis relative to placebo. […] LS=Least Squares, SEM=Standard Error of Mean.

For data set [3], the system named is lung Col1a1 expression. The experiment in a line: Precision cut lung slices, chronic bleomycin exposure, Col1a1 expression. To be noted: 7 days culture. It counts as cell-based, mice (C57BL/6). The protocol:
(§1) Mice (C57BL/6) were administered 3 U/kg of bleomycin (Teva Pharmaceuticals; North Wales, PA) on Day 0 and 1 U/kg of bleomycin on days 14, 28, 42 and 56 via oropharyngeal aspiration while under anesthesia. At day 70, 14 days after the final bleomycin insult, precision cut lung slices were obtained. Following euthanization, 2% low gelling temp agarose was injected into the mouse lungs via the trachea. […] The lobes were then subjected to precision slicing to obtain samples for culture using a microtome (Compresstome VF-300-OZ, Precisionary; Greenville, NC). Individual slices were distributed in a multiwell culture plate and cultured for 7 days under control (DMSO) and test compound conditions. The viability of the slices over the course of culturing was confirmed by WST-1 assay of mitochondrial activity.
During the culture period, slices in the control group were treated with DMSO and slices in the test group were treated with a DMSO solution of one of: the selective antibody αVβ6 inhibitor 3G9; the αVβ1-selective small molecule inhibitor; a combination of the selective antibody αVβ6 inhibitor 3G9 and the αVβ1-selective small molecule inhibitor; compound 5; and the small molecule ALK5 inhibitor. The selective αVβ1 and αVβ6 integrin inhibitors were analyzed at ≥their respective IC90 concentrations for inhibition of TGF-beta activation. Compound 5 was run at approximate IC50 for inhibition of TGF-beta activation by αVβ6.
as §1, with “following” for “after”
During the culture period, slices in the control group were treated with DMSO and slices in the test group were treated with a DMSO solution of one of: compound 5; nintedanib; pirfenidone; a combination of nintedanib and compound 5; a combination of pirfenidone and compound 5; or the small molecule ALK5 inhibitor. Compound 5 was […] effective to equal or exceed its respective IC50 values at αVβ6 and αVβ1. […] Nintendanib and pirfenidone were analyzed at concentrations 10× their reported therapeutic concentrations.

Data set [4] concerns pSMAD2:SMAD2 ratio. The experiment in a line: pSMAD2:SMAD2 ratio in BAL of healthy subjects (20 or 40 mg daily). It counts as in vivo, human. The following applies: all subjects with Cmax above 700 ng/mL; Day 7; FIG. 6G. The protocol:
In order to evaluate the change of pSMAD2 as a biomarker of TGF-β activity following administration of an integrin inhibitor, and to determine a therapeutically effective dosage and an effective blood plasma Cmax of the integrin inhibitor, healthy subjects were administered compound 5, a dual selective αVβ6/αVβ1-integrin inhibitor, and the corresponding Cmax levels and decrease in phosphorylation levels and were determined.
Healthy non-smoking adult males without history of lung disease were selected as subjects and were randomized into 4 cohorts. Broncoalevaolar lavage samples were obtained from all subjects 1 day prior to start of treatment. Cohorts 1 and 2 were administered 20 mg of a compound daily, wherein 3 subjects were administered the dual selective αVβ6/αVβ1-integrin inhibitor (compound 5) per every 1 subject receiving a placebo compound. Cohorts 3 and 4 were administered 40 mg of a compound daily, wherein 3 subjects were administered the dual selective αVβ6/αVβ1-integrin inhibitor (compound 5) per every 1 subject receiving a placebo compound. BAL samples and blood samples were taken from all subjects on Day −1 (baseline) and on Day 7 (end of treatment).

The nature of data set [5]: Phase 2a trial in IPF, pharmacokinetics. It counts as in vivo, human. The text has this:
Overall Summary of Safety Pharmacokinetics.

Data set [6] relates to SMAD3 phosphorylation. The experiment in a line: pSMAD3/SMAD3 in lung tissue and BALF of healthy mice. Format: in vivo. The following applies: 4 days of treatment, dose dependent. The source says:
It has been previously shown that inhibition of αVβ6 in the lung can be detected though measurement of phospho-SMAD (pSMAD) in alveolar macrophages. Alveolar macrophages are known to operate in a unique niche in the lung, distinct from interstitial macrophages. SMAD3 is a downstream target of the active TGF-β cytokine binding its receptor and in alveolar macrophages it is phosphorylated by homoeostatic levels of TGF-β. Accordingly, it was desirable to know whether inhibition of TGF-β activation using the disclosed compounds would result in reduced SMAD2 and SMAD3 phosphorylation.
FIG. 2A is a graph of PSMAD3/SMAD3 in lung tissue from healthy mice administered PBS vehicle and varying levels of compound 5 for 4 days. FIG. 2B is a graph of PSMAD3/SMAD3 in BALF drawn from the same healthy mice administered PBS vehicle and varying levels of compound 5 for 4 days.

Entries after “also recorded” stand apart in the source; their conditions may differ. A value given as a limit tells only on which side of the number the result lay.

As to `COCCN(CCCCc1ccc2c(n1)NCCC2)CC[C@H](Nc1ncnc2ccccc12)C(=O)O` [Compound 5, (S)-4-((2-methoxyethyl)(4-(5,6,7,8-tetrahydro-1,8-naphthyridin-2-yl)butyl)amino)-2-(quinazolin-4-ylamino)butanoic acid], in data set [1], the “inhibition of normal bronchial epithelial cell adhesion to LAP” value is “substantially inhibited”. For the same molecule, the “change from baseline of serum PRO-C3 (type III collagen synthesis) vs. placebo” value in data set [2] (FIG. 27) was “decreased; also recorded: reduced in participants receiving Compound 5 vs. placebo (not significant)”. The “change from baseline of serum PRO-C6 (type VI collagen synthesis) vs. placebo” value in data set [2] (FIG. 28) is “decreased; also recorded: reduced in participants receiving Compound 5 vs. placebo (not significant)”. Moreover, in data set [3] (Compound 5 at approximate IC50 (αVβ6), selective inhibitors at ≥IC90, ALK5 inhibitor at 10× IC50, FIG. 3B), the “lung Col1a1 expression, normalized to DMSO control slices” value was “decreased lung Col1a1 expression substantially”. Moreover, the “decrease of lung Col1a1 expression compared with combined 3G9 and αVβ1-selective inhibitor” value in data set [3] (FIG. 3B) is recorded as “to a greater extent than combined administration”. The “lung slice Col1a1 expression compared to DMSO vehicle control slices” value in data set [3] (nintedanib and pirfenidone at 10× therapeutic concentrations, ALK5 inhibitor at 10× IC50, FIG. 4A) is reported as “substantial, statistically significant (p<0.01 vs vehicle) decrease”. The “reduction in pSMAD2:SMAD2 ratio in BAL compared to the placebo group” value in data set [4] is no less than 50%. In addition, in data set [5] (IPF participants, 40-160 mg QD, sparse sampling), the “dose proportionality of plasma concentrations” value is “generally dose proportional increases; also recorded: increased approximately proportionally with dose”. Besides, the pharmacokinetic profile entry in data set [5] (IPF patients, 12-week treatment) is listed as “favorable pharmacokinetic profile”. For the same molecule, the “SMAD3 phosphorylation (PSMAD3/SMAD3) in lung tissue” value in data set [6] (FIG. 2A) is given as “approximately 50 % of the untreated levels”. The “SMAD3 phosphorylation (PSMAD3/SMAD3) in cells isolated from BALF” value in data set [6] (FIG. 2B) was “approximately 50 % of the untreated levels”.
